Laboratory results: patent US20100021954A1, “High capacity nanoparticulate immobilization surface” (priority 2008, published 2010)

Biological target: T1, streptavidin (Streptomyces avidinii, UniProt P22629)
T1 construct: purchased Sigma-Aldrich S4762
Assay: fl-biotin binding on SA previously immobilized on a PGL coated Epic plate
Conditions: SA immobilized at 1.5 micrograms/mL with KH2PO4 on PGL Epic plate (PGL formulation of Example 4A)
Procedure: Materials: Fluorescein-Biotin from Sigma-Aldrich ref. B943 1; 0.01 M PBS (phosphate buffer); 0.0027 M potassium chloride; and 0.137 M sodium chloride pH 7.4; and dimethylsulfoxide (DMSO).
Preparation of 800 nM fl-biotin solution: 16 microliters of 500 μM fl-biotin solution in DMSO were added to 10 mL of PBS and mixed.
Preparation of PBS/DMSO solution: 16 microliters of DMSO were added to […] of PBS.
Each well of the Epic® plate from Examples 7A, 7B, 9, and 10 was rinsed three (3) times with water using an automatic pipettor. Then 75 microliters of the PBS/DMSO solution were added to each well and the alignment of the optical parts was performed. The plate was left undisturbed until reaching a stable baseline. After reaching a stable base line, 75 microliters of the fl-biotin solution were added to each well and mixed continuously for 2 mins using an automatic pipettor. In the course of the mixing, the binding curve was recorded in real time.
Materials: Unlabeled Streptavidine; KH2PO4 from Sigma-Aldrich ref. P5504; and PBS buffer. First, a […] KH2PO4 solution was prepared and its pH was adjusted to 8. Then 75 microliters of this solution were added to each well from a PGL Epic® coated plate prepared using PGL formulation of Example 4A. The alignment of the optical parts was performed and the plate was left undisturbed until a stable baseline was reached. […]

T1 sequence (P22629 25-183): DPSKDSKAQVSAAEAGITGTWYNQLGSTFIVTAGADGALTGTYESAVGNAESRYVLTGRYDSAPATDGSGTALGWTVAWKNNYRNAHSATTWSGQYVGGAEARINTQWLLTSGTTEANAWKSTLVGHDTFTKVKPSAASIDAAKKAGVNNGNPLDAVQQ

Q: `O=C(CCCCCNC(=O)CCCC[C@@H]1SC[C@@H]2NC(=O)N[C@@H]21)NCCCCCNC(=S)Nc1ccc2c(c1)C(=O)OC21c2ccc(O)cc2Oc2cc(O)ccc21` [fl-biotin, Fluorescein-Biotin] was tested. Which “binding of fl-biotin on immobilized SA” value did it give?
A: The value was “easily observed”.
